Reference: article doi:10.1101/2024.11.03.621781v1 (bioRxiv, 2024)

Assays:
Assay type in all cases: cell-based
HeLa cells [1] = test: Autophagy flux assay with Bafilomycin A1, LC3B/LAMP2 double immunofluorescence; conditions: control cells treated with BafA1
HeLa cells [2] = test: LC3B immunofluorescence, autophagy induction; conditions: time-dependent LC3B immunostaining, then return to baseline
HeLa cells [3] = test: LC3B lipidation assay by western blot; conditions: GAPDH loading control

Row | SMILES | autophagosome accumulation (LC3B puncta) in control cells (HeLa cells [1]) | time of peak autophagy induction (HeLa cells [2]) [min] | LC3B-II/LC3B-I ratio (LC3B lipidation) (HeLa cells [3])
1 | CO/C1=C\C(C)=C\[C@@H](C)[C@@H](O)[C@@H](C)C/C(C)=C/C=C/[C@H](OC)[C@@H]([C@@H](C)[C@@H](O)[C@H](C)[C@@]2(O)C[C@@H](O)[C@H](C)[C@@H](C(C)C)O2)OC1=O [BafA1, Bafilomycin A1] | marked accumulation of autophagosomes |  | 
2 | CO[C@H]1C[C@@H]2CC[C@@H](C)[C@@](O)(O2)C(=O)C(=O)N2CCCC[C@H]2C(=O)O[C@H]([C@H](C)C[C@@H]2CC[C@@H](O)[C@H](OC)C2)CC(=O)[C@H](C)/C=C(\C)[C@@H](O)[C@@H](OC)C(=O)[C@H](C)C[C@H](C)/C=C/C=C/C=C/1C [rapamycin] |  | 90 | increased LC3B- II/LC3B-I ratio
